Measured values reported in patent US10202361B2, “Pyridazinones as herbicides” (E I DU PONT DE NEMOURS AND COMPANY, priority 2014, dated 2019).

How the values were obtained:
Format in all cases: in vivo
[1] = system: buckwheat, wild (wild buckwheat, Polygonum convolvulus); test: Test D pre-/postemergence controlled growth environment herbicide test; conditions: scale 0 to 100
Procedure, shortened: (§1)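 Ratings come from visual comparison with untreated plants on a 0–100 scale, 0 meaning no effect. Test chemicals in surfactant-containing solvent were applied either to soil at planting (silt loam) or over foliage of 2–18 cm plants in peat-based medium, then held 14–21 d in a controlled growth environment.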

[2] = system: speedwell (bird's-eye speedwell, Veronica persica); test: as above; conditions: scale 0 to 100
Procedure, shortened: as §1

[3] = system: blackgrass (Alopecurus myosuroides); test: as above; conditions: scale 0 to 100
Procedure, shortened: as §1

[4] = system: windgrass (Apera spica-venti); test: as above; conditions: scale 0 to 100
Procedure, shortened: as §1

[5] = system: Russian thistle (Salsola kali); test: as above; conditions: scale 0 to 100
Procedure, shortened: as §1

[6] = system: nutsedge, yellow (yellow nutsedge, Cyperus esculentus); test: Test E pre-/postemergence greenhouse herbicide test; conditions: Preemergence, scale 0 to 100
kochia (Kochia scoparia) = test: as above; conditions: Preemergence, scale 0 to 100
Excerpt: (§2) Seeds of plant species selected from corn (Zea mays), soybean (Glycine max), lambsquarters (Chenopodium album), poinsettia, wild (wild poinsettia, Euphorbia heterophylla), pigweed, palmer (palmer pigweed, Amaranthus palmeri), waterhemp (common waterhemp, Amaranthus rudis), surinam grass (Brachiaria decumbens), crabgrass, large (large crabgrass Digitaria sanguinalis), crabgrass, Brazil (Brazilian crabgrass, Digitaria horizontalis), panicum, fall (fall panicum, Panicum dichotomiflorum), foxtail, giant (giant foxtail, Setaria faberii), foxtail, green (green foxtail, Setaria viridis), goosegrass (Eleusine indica), johnsongrass (Sorghum halepense), ragweed (common ragweed, Ambrosia elatior), barnyardgrass (Echinochloa crus-galli), sandbur (southern sandbur, Cenchrus echinatus), arrowleaf sida (Sida rhombifolia), ryegrass, Italian (Italian ryegrass, Lolium multiflorum), dayflower, VA (Virginia dayflower, Commelina virginica), field bindweed (Convolvulus arvensis), cocklebur (common cocklebur, Xanthium strumarium), morningglory (Ipomoea coccinea), nightshade (eastern black nightshade, Solanum ptycanthum), kochia (Kochia scoparia), nutsedge, yellow (yellow nutsedge, Cyperus esculentus), smartweed (ladysthumb smartweed, Polygonum persicaria), velvetleaf (Abutilon theophrasti), and beggarticks (hairy beggarticks, Bidens pilosa), were planted into a silt loam soil and treated preemergence with test chemicals formulated in a non-phytotoxic solvent mixture which included a surfactant.
(§3) At the same time, plants from these crop and weed species and also waterhemp_RES1, (ALS & Triazine resistant common waterhemp, Amaranthus rudis), and waterhemp_RES2, (ALS & HPPD resistant common waterhemp, Amaranthus rudis) were planted in pots containing Redi-Earth® planting medium (Scotts Company, 14111 Scottslawn Road, Marysville, Ohio 43041) comprising spaghnum peat moss, vermiculite, wetting agent and starter nutrients were treated with postemergence applications of test chemicals formulated in the same manner. Plants ranged in height from 2 to 18 cm for postemergence treatments (1- to 4-leaf stage). Treated plants and controls were maintained in a greenhouse for 14 to 21 d, after which time all species were compared to controls and visually evaluated. Plant response ratings, summarized in Table E, are based on a scale of 0 to 100 where 0 is no effect and 100 is complete control. A dash (-) response means no test result.

[7] = system: dayflower, VA (Virginia dayflower, Commelina virginica); test: as above; conditions: scale 0 to 100
Excerpt: as §2, §3

Cc1cc(=O)n(-c2ccc(F)cc2)nc1Oc1ccnc(C(F)(F)F)c1 [Compound 14, 2-(4-fluorophenyl)-5-methyl-6-[[2-(trifluoromethyl)-4-pyridinyl]oxy]-3 (2H)-pyridazinone]
Plant response rating ([1]; Postemergence, 16 g ai/ha): 55 | Plant response rating ([1]; Postemergence, 31 g ai/ha): 55 | Plant response rating ([1]; Postemergence, 62 g ai/ha): 75 | Plant response rating ([1]; Postemergence, 125 g ai/ha): 70 | Plant response rating ([1]; Postemergence, 250 g ai/ha): 70 | Plant response rating ([1]; Preemergence, 16 g ai/ha): 15 | Plant response rating ([1]; Preemergence, 31 g ai/ha): 15 | Plant response rating ([1]; Preemergence, 62 g ai/ha): 25 | Plant response rating ([1]; Preemergence, 125 g ai/ha): 25 | Plant response rating ([1]; Preemergence, 250 g ai/ha): 100 | Plant response rating ([2]; Postemergence, 16 g ai/ha): 100 | Plant response rating ([2]; Postemergence, 31 g ai/ha): 100 | Plant response rating ([2]; Postemergence, 62 g ai/ha): 100 | Plant response rating ([2]; Postemergence, 125 g ai/ha): 100 | Plant response rating ([2]; Postemergence, 250 g ai/ha): 100 | Plant response rating ([2]; Preemergence, 250 g ai/ha): 100 | Plant response rating ([3]; Postemergence, 16 g ai/ha): 5 | Plant response rating ([3]; Postemergence, 31 g ai/ha): 10 | Plant response rating ([3]; Postemergence, 62 g ai/ha): 10 | Plant response rating ([3]; Postemergence, 125 g ai/ha): 10 | Plant response rating ([3]; Postemergence, 250 g ai/ha): 10 | Plant response rating ([3]; Preemergence, 16 g ai/ha): 0 | Plant response rating ([3]; Preemergence, 31 g ai/ha): 0 | Plant response rating ([3]; Preemergence, 62 g ai/ha): 10 | Plant response rating ([3]; Preemergence, 125 g ai/ha): 20 | Plant response rating ([3]; Preemergence, 250 g ai/ha): 70 | Plant response rating ([4]; Postemergence, 16 g ai/ha): 5 | Plant response rating ([4]; Postemergence, 31 g ai/ha): 5 | Plant response rating ([4]; Postemergence, 62 g ai/ha): 10 | Plant response rating ([4]; Postemergence, 125 g ai/ha): 10 | Plant response rating ([4]; Postemergence, 250 g ai/ha): 60 | Plant response rating ([4]; Preemergence, 16 g ai/ha): 10 | Plant response rating ([4]; Preemergence, 31 g ai/ha): 5 | Plant response rating ([4]; Preemergence, 62 g ai/ha): 5 | Plant response rating ([4]; Preemergence, 125 g ai/ha): 35 | Plant response rating ([4]; Preemergence, 250 g ai/ha): 65 | Plant response rating ([5]; Postemergence, 16 g ai/ha): 20 | Plant response rating ([5]; Postemergence, 31 g ai/ha): 10 | Plant response rating ([5]; Postemergence, 62 g ai/ha): 15 | Plant response rating ([5]; Postemergence, 125 g ai/ha): 20 | Plant response rating ([5]; Postemergence, 250 g ai/ha): 35 | Plant response rating ([5]; Preemergence, 16 g ai/ha): 0 | Plant response rating ([5]; Preemergence, 31 g ai/ha): 50 | Plant response rating ([5]; Preemergence, 62 g ai/ha): 85 | Plant response rating ([5]; Preemergence, 125 g ai/ha): 50 | Plant response rating ([5]; Preemergence, 250 g ai/ha): 95

COc1cc(=O)n(-c2ccc(C(F)(F)F)cc2)nc1Cc1ccnc(C(F)(F)F)c1 [Compound 16, 5-methoxy-2-[4-(trifluoromethyl)phenyl]-6-[[2-(trifluoromethyl)-4-pyridinyl]methyl]-3(2H)-pyridazinone]
Plant response rating: Nutsedge, Yellow ([6]; 62 g ai/ha): 20 | Plant response rating: Nutsedge, Yellow ([6]; 125 g ai/ha): 20 | Plant response rating: Nutsedge, Yellow ([6]; 250 g ai/ha): 40 | Plant response rating: Kochia (kochia (Kochia scoparia); 62 g ai/ha): 98 | Plant response rating: Kochia (kochia (Kochia scoparia); 125 g ai/ha): 98 | Plant response rating: Kochia (kochia (Kochia scoparia); 250 g ai/ha): 98 | Plant response rating: Dayflower, VA ([7]; Postemergence, 62 g ai/ha): 20 | Plant response rating: Dayflower, VA ([7]; Postemergence, 125 g ai/ha): 60 | Plant response rating: Dayflower, VA ([7]; Postemergence, 250 g ai/ha): 70 | Plant response rating: Dayflower, VA ([7]; Preemergence, 62 g ai/ha): 5 | Plant response rating: Dayflower, VA ([7]; Preemergence, 125 g ai/ha): 20 | Plant response rating: Dayflower, VA ([7]; Preemergence, 250 g ai/ha): 65

CCOc1cc(=O)n(-c2ccc(F)cc2)nc1Cc1ccnc(C(F)(F)F)c1 [Compound 25, 5-ethoxy-2-(4-fluorophenyl)-6-[[2-(trifluoromethyl)-4-pyridinyl]methyl]-3 (2H)-pyridazinone]
Plant response rating: Nutsedge, Yellow ([6]; 8 g ai/ha): 0 | Plant response rating: Nutsedge, Yellow ([6]; 16 g ai/ha): 0 | Plant response rating: Nutsedge, Yellow ([6]; 31 g ai/ha): 0 | Plant response rating: Nutsedge, Yellow ([6]; 62 g ai/ha): 0 | Plant response rating: Nutsedge, Yellow ([6]; 125 g ai/ha): 0 | Plant response rating: Kochia (kochia (Kochia scoparia); 8 g ai/ha): 40 | Plant response rating: Kochia (kochia (Kochia scoparia); 16 g ai/ha): 50 | Plant response rating: Kochia (kochia (Kochia scoparia); 31 g ai/ha): 70 | Plant response rating: Kochia (kochia (Kochia scoparia); 62 g ai/ha): 100 | Plant response rating: Kochia (kochia (Kochia scoparia); 125 g ai/ha): 95 | Plant response rating: Dayflower, VA ([7]; Preemergence, 8 g ai/ha): 0 | Plant response rating: Dayflower, VA ([7]; Preemergence, 16 g ai/ha): 0 | Plant response rating: Dayflower, VA ([7]; Preemergence, 31 g ai/ha): 15 | Plant response rating: Dayflower, VA ([7]; Preemergence, 62 g ai/ha): 20 | Plant response rating: Dayflower, VA ([7]; Preemergence, 125 g ai/ha): 70
